# Reference: paper PMC12172326 (Journal of Biomedical Science, 2025)
# Key:
# [1] = LPS-induced inflammation in IMG microglial cells (viability, nitrite, TNF-α); format: cell-based, mouse; settings: mouse, IMG immortalized microglial cells, IMG, 0.6 to 60 μM, LPS 10 ng/mL, MTS, read-out: cellular viability
# Protocol: (§1) IMG cell culture: Mouse immortalized microglial ‘IMG’ cells (Sigma-Aldrich; St. Louis, MO, USA; Cat # SCC-134, RRID:CVCL HC49) were cultured in High Glucose DMEM (Sigma Cat. No. D6546) with 10% heat-inactivated fetal bovine serum (Gibco™ Cat # 10082147), 1 × L-Glutamine (Sigma Cat # TMS-002-C) and 100 U/mL penicillin/streptomycin (Gibco™ Cat # 15140148). IMG cell subculturing was performed according to the product datasheet. In brief, cells were detached from culture plates with Accutase® (Sigma, Cat # A6964), collected, and centrifuged, with the cell pellet subsequently resuspended in media. The cells were then plated for experiments at specified densities and used for a maximum of 10 passages.
# (§2) For cytokine/nitrite assessment studies, cells were grown in 24-well (40 K cells/well) tissue culture-treated plates in 500 μl of media. […] This LPS concentration induced a submaximal inflammatory response in IMG pilot studies. Following a 24 h incubation, conditioned media was collected and replaced with 500 μl fresh media to allow assessment of cell viability, TNF-α (ELISA MAX™ Deluxe Set Mouse TNF-α, BioLegend, CA, USA) and nitrite levels (Griess Reagent System, Promega, Madison, WI, USA), according to manufacturer’s instructions.
# [2] = test system: IMG cells; experiment: as above; format: cell-based, mouse; settings: 24 h
# Protocol: as §1, §2
# [3] = ex vivo stability in mouse plasma; format: in vitro ADME; settings: 100 μg/ml, room temperature, 0-180 min
# Protocol: An ex vivo evaluation of drug stability was conducted in mouse and human plasma samples (WuXi AppTec, Shanghai, China). […] Samples were, thereafter, incubated at room temperature for 0, 15, 30, 60, 120, and 180 min before immediate drug extraction. […] Extraction was performed by adding ethyl acetate containing the internal standard (donepezil—known to undergo first-pass hepatic metabolism) to the spiked sample (100 μL), vortexed for 1 min, and centrifuged at 13,000 rpm, 4 °C for 10 min. The supernatant was used for LC–MS/MS analysis.
# LC–MS/MS analysis was performed with a Vanquish Flex UHPLC (Thermo Scientific) and a Orbitrap Exploris 240 mass spectrometer (Thermo Scientific). Samples were separated on a C18 UHPLC column (100 mm × 2.1 mm, 3 μm; Thermo Scientific). The mobile phase A for LC separation was 0.1% formic acid and the mobile phase B was 0.1% formic acid in methanol. The chromatography gradient was designed for a linear increase from 5% B in 1 min, 5% B to 95% B in 8 min, 95% B in 3 min, and 5% B in 3 min. The flow rate was maintained at 0.3 mL/min. Mass spectra were acquired using the data-dependent Top 4 MS2 (ddMS2) method with a mass scan (100–1000 m/z) and 120,000 MS resolution.
# [4] = rat; cited from earlier work
smiles,measurement,setting,value
"Nc1cccc2c1C(=S)N(C1CCC(=O)NC1=O)C2=O (stereo not drawn) [3-MP, 3-monothiopomalidomide]",viability at 24 h,[1],> 90%
same,IMG cell viability,"[2]; 100 μM, without LPS, vs vehicle control, MTS",reduced
same,concentration significantly reducing LPS-induced TNF-α,"[2]; IMG, LPS 10 ng/mL, p < 0.001",≥ 10 µM
same,concentration significantly reducing LPS-induced nitrite,"[2]; IMG, LPS 10 ng/mL, p < 0.05",≥ 30 µM
same,ex vivo stability in mouse plasma,[3],stable
same,stability in ex vivo plasma and liver homogenate samples,[4],relatively stable
